The values below are quoted from earlier work in article PMC11678311, “Log BB Prediction Models Using TLC and HPLC Retention Values as Protein Affinity Data” (Pharmaceutics, 2024).

Structures are written as SMILES.

For the series the following is noted: drugs highly bound to plasma proteins whose log BB may be less than zero.

Consider `Cc1ncc2n1-c1ccc(Cl)cc1C(c1ccccc1F)=NC2` [midazolam], for which the “penetration of the blood–brain barrier / central action” value is “cross the blood–brain barrier in an unbound state and act centrally”. For the molecule `CC(C)Cc1ccc(C(C)C(=O)O)cc1` (centres unmarked) [ibuprofen], the “penetration of the blood–brain barrier / central action” value was “cross the blood–brain barrier in an unbound state and act centrally”.
